{"source": "patent US20250375473A1", "about": "“Pharmaceutical composition for treating cancer comprising an ionic compound having metal ion binding thereto” (METAFINES.CO.LTD., priority 2018, published 2025)", "key": {"SW480": {"system": "SW480", "test": "Hetero salts vs homo salts, cell viability and cytotoxicity, SW480", "assay_type": "cell-based", "conditions": "SW480; 5 mM", "experimental": "(§1) Hetero salts prepared according to the examples (ASCA101, ASCA201) and homo salts were applied to colorectal cancer cell lines, and their effects on cell viability and cytotoxicity were evaluated.\n(§2) Herein, “Na-ASC” refers to sodium ascorbate, “Na-DCA” refers to sodium dichloroacetate, “Ca (ASC) 2” refers to calcium ascorbate, “Ca (DCA) 2” refers to calcium dichloroacetate, and “Ca (LA) 2” refers to calcium lactate."}, "[1]": {"system": "lung cancer cell line (A-549)", "test": "MTT assay, 48 h, A549", "conditions": "48 h, MTT", "method": "(§6) 7 cell lines were aliquoted to each well of a 96-well plate at 5×10^3 cells, and cultured for 24 hours. […] The drug-treated cells were cultured in an incubator (37° C., 5% CO2) for 48 hours, and 5 mg/ ? MTT reagent 10 ? was added to each well and cultured for additional 4 hours. Then, culture medium was removed and DMSO 100 ? was treated to dissolve the MTT stained precipitate, and absorbance was measured at 540 nm with a microplate reader."}, "[2]": {"system": "colorectal cancer cell line (DLD-1)", "test": "MTT assay, 72 h, colorectal cancer cell line", "assay_type": "cell-based", "conditions": "DLD-1; 72 h; MTT", "experimental": "(§3) The calcium salts of Examples 1 to 3 were added to each well by concentration (20 mg/ ? , mg/ ? , 0.8 mg/ ? , 0.16 mg/ ? , 0.032 mg/ ? , 0.0064 mg/ ? , 0.00128 mg/ ? , 0.000256 mg/ ? ). […] The supernatant was removed using a centrifuge, DMSO 200 ? was added to each well to dissolve the MTT stained precipitate, and OD540 value was measured at 540 nm with an ELISA reader."}, "[3]": {"system": "A549/LUC cells implanted into the lung", "test": "Lung cancer mouse model (A549/LUC orthotopic model)", "assay_type": "in vivo", "conditions": "100 mg/kg IV once a day (Qdx4) for 5 weeks; vs control", "experimental": "(§4) In order to construct an animal model with orthotopic xenotransplantation (orthotopic xenograft) and general animal model (orthotopic xenograft), A549/LUC cells and DLD-1 cells were subcultured, and then the cancer cells were injected into the lung and colon of the mice, respectively.\nSince the model was directly injected with cancer cells into the mouse organ, the growth of cancer was not confirmed by observation of the mouse appearance. Therefore, in the animal model to which A549/LUC cells were injected, D-Luciferin was injected intraperitoneally every 7 days to determine the growth saturation of cancer by luminescence imaging measurement using IVIS spectrum imaging system (Xenogen) device. On the other hand, in the animal model to which DLD-1 cells were injected, after 7 days, the experimental subjects were sacrificed to determine the growth saturation of cancer. […]\nThe calcium salts of Examples 1 to 3 were administered to the same mouse model constructed in Test Example 5-1 (A549/LUC orthotopic model), respectively. […] Further, in order to quantify each imaging result more accurately, in vivo images were obtained by measuring ROI (Region of Interest), which is a program of IVIS spectrum (Xenogen), and the results are shown in FIG. 21."}, "[4]": {"system": "colorectal cancer cell line (HT-29)", "test": "MTT assay, 48 h, HT-29", "conditions": "48 h, MTT", "method": "as §6"}, "[5]": {"system": "stomach cancer cell line (SNU-638)", "test": "MTT assay, 48 h, SNU-638", "conditions": "48 h, MTT", "method": "as §6"}, "[6]": {"system": "breast cancer cell line (MDA-MB-231)", "test": "MTT assay, 72 h, breast cancer cell line", "assay_type": "cell-based", "conditions": "MDA-MB-231; 72 h; MTT", "experimental": "as §3"}, "[7]": {"system": "human colorectal cancer cell lines (HCT-116 and HT-29)", "test": "Change in ascorbic acid level in cancer cells", "assay_type": "cell-based", "conditions": "1 mM; 24 h; lysate; vs untreated control", "experimental": "After culture, the cultured cancer cells were pulverized with a homogenizer and centrifuged, and the concentration of ascorbic acid contained in the lysate was measured using an ascorbic acid assay kit (Biovision, San Francisco, CA)."}, "[8]": {"system": "brain cancer cell line (U87MG)", "test": "MTT assay, 72 h, brain cancer cell line", "assay_type": "cell-based", "conditions": "U87MG, MTT", "experimental": "as §3"}, "[9]": {"system": "colorectal cancer cell line (HCT-116)", "test": "MTT assay, 48 h, HCT-116", "conditions": "48 h; MTT; value in brackets", "method": "as §6"}, "[10]": {"system": "liver cancer cell line (HepG2)", "test": "MTT assay, 48 h, HepG2", "conditions": "48 h, MTT", "method": "as §6"}, "[11]": {"system": "pancreatic cancer cell line (PANC-1)", "test": "MTT assay, 48 h, PANC-1", "conditions": "48 h, MTT", "method": "as §6"}, "[12]": {"test": "ASCA101 in beagle dog plasma after intravenous administration (LC-MS/MS)", "assay_type": "in vivo"}, "[13]": {"test": "Maintenance of hetero salt form in aqueous solution (MS)", "assay_type": "physicochemical", "conditions": "added to water"}, "[14]": {"system": "DLD-1 cells transplanted into the colon", "test": "Colorectal cancer mouse model (DLD-1 orthotopic model)", "assay_type": "in vivo", "conditions": "100 mg/kg IV once a day (Qdx4) for 1 week; dissected after 1 week; vs control", "experimental": "as §4\nSince the model was directly injected with cancer cells into the mouse organ, the growth of cancer was not confirmed by observation of the mouse appearance. Therefore, in the animal model to which A549/LUC cells were injected, D-Luciferin was injected intraperitoneally every 7 days to determine the growth saturation of cancer by luminescence imaging measurement using IVIS spectrum imaging system (Xenogen) device. On the other hand, in the animal model to which DLD-1 cells were injected, after 7 days, the experimental subjects were sacrificed to determine the growth saturation of cancer.\nIn other words, general DLD-1 cells were transplanted into the colon to construct a colorectal cancer mouse model (DLD-1 orthotopic model), and orthotopic xenotransplantation was conducted to the lung to construct a lung cancer mouse model (A549/LUC orthotopic model).\nFurther, weight of cancer tissue was measured to confirm the anticancer efficacy of the inventive substance in vivo and the results are shown in FIG. 19B."}, "PDH enzyme": {"system": "PDH enzyme", "test": "Time-dependent PDH enzyme activity in cancer cells", "assay_type": "cell-based", "conditions": "DLD-1 and HT-29 cancer cells; FIG. 29"}, "[15]": {"system": "poly (ADP-ribose) polymerase 1 (PARP-1)", "test": "Western blot, PARP-1 expression in HCT-116", "assay_type": "cell-based, human", "conditions": "24 h", "experimental": "The cultured cancer cells were pulverized with a homogenizer and centrifuged, and the expression levels of poly (ADP-ribose) polymerase 1 (PARP-1), β-catenin, VEGF and β-actin proteins contained in the lysate were measured using Western blot."}, "DLD-1 cell": {"system": "DLD-1 cell", "test": "IC50 of each drug alone, 48 h, DLD-1", "assay_type": "cell-based", "experimental": "(§5) Then, various concentration of Example or chemical anticancer drugs (Fluorouracil (5-FU), SN-38, Paclitaxel (PTX)) were treated thereto alone."}, "[16]": {"system": "ovarian cancer cell line (A2780)", "test": "MTT assay, 48 h, A2780", "conditions": "48 h, MTT", "method": "as §6"}, "DLD-1": {"system": "DLD-1", "test": "Hetero salts vs homo salts, cell viability and cytotoxicity, DLD-1", "assay_type": "cell-based", "conditions": "DLD-1; 10 mM", "experimental": "as §1, §2"}, "HCT-116 cell [17]": {"system": "HCT-116 cell", "test": "IC50 of each drug alone, 48 h, HCT-116", "assay_type": "cell-based, human", "conditions": "read-out: IC50 value, HCT-116 cell", "experimental": "as §5"}, "HCT-116 cell [18]": {"system": "HCT-116 cell", "test": "Co-treatment with chemical anticancer drug, growth inhibition and combinational index", "conditions": "48 h, co-treated with Paclitaxel, PTX (μM) in c0 and Example 1 (μM) in c1 of the row", "from_the_text": "As the co-delivery effect, the synergistic effect was CI≤0.85, the additive effect was 0.85<CI≤1.15, and the antagonistic effect was CI>1.15."}, "HT-29 cell": {"system": "HT-29 cell", "test": "IC50 of each drug alone, 48 h, HT-29", "assay_type": "cell-based, human", "experimental": "as §5"}, "[19]": {"test": "ASCA101 in rat plasma after intravenous administration (LC-MS/MS)", "assay_type": "in vivo", "conditions": "0.083 hours after intravenous administration"}, "[20]": {"test": "GLP toxicity studies (NOAEL), intravenous and oral", "assay_type": "in vivo", "experimental": "In detail, the ionic compound is administered in a dose ranging from 1.61 mg/kg to 64.86 mg/kg based on body weight of the subject. Reflecting the results of actual nonclinical efficacy, toxicity and clinical phase 1 PK/PD (pharmacokinetics/pharmacodynamics) studies, the clinically effective doses are expected to be in the HED (Human Equivalent Dose) ranges 1.61 mg/kg for intravenous administration and 7.22 mg/kg for oral administration-up to a maximum of 32.43 mg/kg for intravenous administration and 64.86 mg/kg for oral administration."}}, "note": "“And” between values parts separate entries of the source, which are not always exact repeats. Equal entries are not always repeated."}
{"smiles": "O=C([O-])C(Cl)Cl.O=C1O[C@H]([C@@H](O)CO)C([O-])=C1O.[Ca+2]", "note": "[Example 1, calcium salts of dichloroacetic acid and ascorbic acid]", "values": [{"measurement": "cell viability, SW480 (5 mM)", "setting": "SW480", "result": 20.72}, {"measurement": "IC50 of A549 Lung cancer (mg/ml)", "setting": "[1]; value in brackets", "result": "(0.79) mg/ml"}, {"measurement": "IC50", "setting": "[1]; read-out: IC50 mM of A549 Lung cancer", "result": 2.3, "unit": "mM"}, {"measurement": "IC50 of Colorectal cancer cell line", "setting": "[2]", "result": 70, "unit": "µg/mL"}, {"measurement": "anticancer efficacy and metastasis (luminescence imaging, ROI)", "setting": "[3]", "result": "the growth and metastasis of cancer tissues was not shown at all"}, {"measurement": "IC50 of HT-29 Colorectal cancer cell line (mg/ml)", "setting": "[4]; value in brackets", "result": "(0.29) mg/ml"}, {"measurement": "IC50", "setting": "[4]; read-out: IC50 mM of HT-29 Colorectal cancer cell line", "result": 0.83, "unit": "mM"}, {"measurement": "IC50 of SNU-638 Stomach cancer (mg/ml)", "setting": "[5]; value in brackets", "result": "(0.48) mg/ml"}, {"measurement": "IC50", "setting": "[5]; read-out: IC50 mM of SNU-638 Stomach cancer", "result": 1.4, "unit": "mM"}, {"measurement": "IC50 of Breast cancer cell line", "setting": "[6]", "result": 40, "unit": "µg/mL"}, {"measurement": "ascorbic acid concentration in cancer cells", "setting": "[7]", "result": "increased"}, {"measurement": "IC50 of Brain cancer cell line", "setting": "[8]", "result": 500, "unit": "µg/mL"}, {"measurement": "IC50 of HCT-116 Colorectal cancer cell line (mg/ml)", "setting": "[9]", "result": "(0.12) mg/ml"}, {"measurement": "IC50 of HepG2 Liver cancer (mg/ml)", "setting": "[10]; value in brackets", "result": "(0.72) mg/ml"}, {"measurement": "IC50", "setting": "[10]; read-out: IC50 mM of HepG2 Liver cancer", "result": 2.1, "unit": "mM"}, {"measurement": "IC50 of PANC-1 Pancreatic cancer (mg/ml)", "setting": "[11]; value in brackets", "result": "(0.14) mg/ml"}, {"measurement": "IC50", "setting": "[11]; read-out: IC50 mM of PANC-1 Pancreatic cancer", "result": 0.42, "unit": "mM"}, {"measurement": "ASCA101 concentration in beagle dog plasma", "setting": "[12]; 0.083 hours after intravenous administration", "result": 26.835, "unit": "µg/mL"}, {"measurement": "maintenance of hetero salt form in plasma / liquid medium", "setting": "[12]; plasma of rats and beagles after intravenous administration", "result": "the hetero salt form was maintained in the bloodstream"}, {"measurement": "retention of hetero salt structure in aqueous solution (MS peaks)", "setting": "[13]", "result": "can retain its hetero salt structure in aqueous solution"}, {"measurement": "growth of cancer cells / weight of cancer tissue", "setting": "[14]", "result": "significantly suppressed growth of cancer cells"}, {"measurement": "time-dependent PDH activity", "setting": "PDH enzyme", "result": "greater increase in PDH activity during the first 6 hours, with the activity remaining relatively stable beyond 6 hours"}, {"measurement": "concentration at which expression level of full length PARP-1 was decreased the most", "setting": "[15]", "result": 0.18, "unit": "mg/mL"}, {"measurement": "IC50", "setting": "DLD-1 cell", "result": 360, "unit": "µM"}, {"measurement": "IC50 of A2780 Ovarian cancer (mg/ml)", "setting": "[16]; value in brackets", "result": "(0.06) mg/ml"}, {"measurement": "IC50", "setting": "[16]; read-out: IC50 mM of A2780 Ovarian cancer", "result": 0.17, "unit": "mM"}, {"measurement": "cell viability, DLD-1 (10 mM)", "setting": "DLD-1", "result": 11.43}, {"measurement": "IC50", "setting": "HCT-116 cell [17]", "result": 311, "unit": "µM"}, {"measurement": "Inhibition effect (%)", "setting": "HCT-116 cell [18]", "result": "73.298% and 63.569%"}, {"measurement": "IC50", "setting": "HT-29 cell", "result": 1330, "unit": "µM"}, {"measurement": "ASCA101 concentration in rat plasma", "setting": "[19]", "result": 26.835, "unit": "µg/mL"}, {"measurement": "human equivalent dose (HED) from NOAEL with safety factor of 10, intravenous", "setting": "[20]; intravenous route", "result": 1.61, "unit": "mg/kg"}, {"measurement": "human equivalent dose (HED) from NOAEL with safety factor of 10, oral", "setting": "[20]; oral route", "result": 7.22, "unit": "mg/kg"}]}
